Key:
[1] = system: E. coli WT-3 [gyrA(S83L,D87G)]; experiment: microbe, parasite or virus in culture; assay type: cell-based
Method in brief: (§1)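 Overnight cultures were diluted in cation-adjusted Müller-Hinton broth to 10^4-10^6 cfu/mL and grown with serially diluted compound (from DMSO stocks) for approx. 16 h at 30-37° C. MIC is the lowest concentration with no visible bacterial growth.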

E. coli ΔtolC = experiment: microbe, parasite or virus in culture; assay type: cell-based; details: small panel, Tables 1a/1b; no visual growth after approx. 16 h
Method in brief: as §1

P. aeruginosa ΔmexAB = experiment: microbe, parasite or virus in culture; assay type: cell-based; details: efflux-deficient strain; small panel, Tables 1a/1b
Method in brief: as §1

A. baumannii DSM-30008 = experiment: MIC, microbroth dilution susceptibility assay; assay type: cell-based; details: large panel, Table 2a
Method in brief: as §1

C. freundii DSM-30039 = experiment: MIC, microbroth dilution susceptibility assay; assay type: cell-based; details: large panel, Table 2a
Method in brief: as §1

E. aerogenes DSM-30053 = experiment: MIC, microbroth dilution susceptibility assay; assay type: cell-based; details: large panel, Table 2a
Method in brief: as §1

E. cloacae DSM-30054 = experiment: MIC, microbroth dilution susceptibility assay; assay type: cell-based; details: large panel, Table 2a
Method in brief: as §1

E. coli WT DSM-1116 = experiment: MIC, microbroth dilution susceptibility assay; assay type: cell-based; details: small panel, Tables 1a/1b; no visual growth after approx. 16 h
Method in brief: as §1

E. coli WT = experiment: MIC, microbroth dilution susceptibility assay; assay type: cell-based
Method in brief: as §1

E. faecalis ATCC-29212 = experiment: MIC, microbroth dilution susceptibility assay; assay type: cell-based; details: large panel, Table 2a; TSB
Method in brief: as §1

K. pneumoniae DSM-30104 = experiment: MIC, microbroth dilution susceptibility assay; assay type: cell-based; details: large panel, Table 2a
Method in brief: as §1

P. aeruginosa DSM-24600 = experiment: MIC, microbroth dilution susceptibility assay; assay type: cell-based; details: large panel, Table 2a
Method in brief: as §1

P. aeruginosa DSM-46316 = experiment: MIC, microbroth dilution susceptibility assay; assay type: cell-based; details: large panel, Table 2a
Method in brief: as §1

P. aeruginosa WT PA14 = experiment: MIC, microbroth dilution susceptibility assay; assay type: cell-based; details: small panel, Tables 1a/1b
Method in brief: as §1

P. mirabilis DSM-2140 = experiment: MIC, microbroth dilution susceptibility assay; assay type: cell-based; details: large panel, Table 2a
Method in brief: as §1

P. vulgaris DSM-2140 = experiment: MIC, microbroth dilution susceptibility assay; assay type: cell-based; details: large panel, Table 2a
Method in brief: as §1

S. aureus ATCC-29213 = experiment: MIC, microbroth dilution susceptibility assay; assay type: cell-based; details: large panel, Table 2a
Method in brief: as §1

S. aureus Newman = experiment: MIC, microbroth dilution susceptibility assay; assay type: cell-based; details: small panel, Tables 1a/1b
Method in brief: as §1

S. epidermidis DSM-28765 = experiment: MIC, microbroth dilution susceptibility assay; assay type: cell-based; details: large panel, Table 2a
Method in brief: as §1

S. marcescens DSM-30121 = experiment: MIC, microbroth dilution susceptibility assay; assay type: cell-based; details: large panel, Table 2a
Method in brief: as §1

S. pneumoniae DSM-20566 = experiment: MIC, microbroth dilution susceptibility assay; assay type: cell-based; details: large panel, Table 2a; TSB
Method in brief: as §1

E. coli gyrase = target: T1, E. coli gyrase (Escherichia coli, UniProt P0AES4+P0AES6); experiment: E. coli gyrase supercoiling (sc) assay; assay type: biochemical; details: supercoiling assay kit, agarose gel quantification; read-out: Ec gyrase sc IC50
T1 construct: purchased Inspiralis
Protocol: The target activity on E. coli gyrase was assessed as described in Baumann et al., Angew Chem Int Ed Engl. 2014; 53(52):14605-9 using a commercial supercoiling (sc) assay kit from Inspiralis according to the manufacturer's instructions. The samples were separated on 0.8% (w/v) agarose gels and relaxed and supercoiled plasmid was visualized by ethidium bromide staining. Half-inhibitory concentrations (IC50) were calculated after image analysis and quantification (ImageJ) based on sigmoidal curve fitting (OriginPro).

[2] = system: E. coli WT-III [marRΔ74bp]; assay type: cell-based; details: fluoroquinolone-resistant mutant; Table 2a
Protocol: (§2) Cystobactamid derivatives synthesized were tested against relevant Gram negative and positive bacteria of clinical interest. Experimental procedures used for the biological characterization of the compounds are the same as previously described in WO 2016/082934.
(§3) Bacterial strains used in susceptibility assays (minimum inhibitory concentration, MIC) were either part of our internal strain collection or purchased from the German Collection of Microorganisms and Cell Cultures (Deutsche Sammlung von Mikroorganismen und Zellkulturen, DSMZ) and the American Type Culture Collection (ATCC). The susceptible E. coli strain (WT) and fluoroquinolone-resistant mutants E. coli WT-3 and WT-III were kindly provided by Prof Dr. P. Heisig, Pharmaceutical Biology and Microbiology, University of Hamburg, Germany. The efflux-deficient strain P. aeruginosa ΔmexAB was kindly provided by Prof Dr. S. Häußler, Institute for Molecular Bacteriology, TWINCORE, Hannover, Germany. All compounds were prepared as DMSO stocks and MIC values were determined in standard microbroth dilution assays in 96-well MTPs as described in Baumann et al., Angew Chem Int Ed Engl. 2014; 53(52):14605-9. In brief, overnight cultures of bacteria were diluted in either tryptic soy broth (TSB: 1.7% peptone casein, 0.3% peptone soymeal, 0.25% glucose, 0.5% NaCl, 0.25% K2HPO4; pH 7.3; S. pneumoniae and E. faecalis) or cation-adjusted Müller-Hinton Broth (BBL™, BD; all other bacteria) and adjusted to 10^4-10^6 cfu/mL. Bacteria were grown in the presence of the derivatives in serial dilution for approx. 16 h at 30-37° C. MIC values were determined and were defined as the antibiotic concentration at which no visual growth of bacteria was observed.

A. baumannii = experiment: MIC, microbroth dilution susceptibility assay (Table 2b); assay type: cell-based; details: larger panel
Protocol: as §2, §3

C. freundii = experiment: as above; assay type: cell-based; details: larger panel
Protocol: as §2, §3

E. aerogenes = experiment: as above; assay type: cell-based; details: larger panel
Protocol: as §2, §3

E. cloacae = experiment: as above; assay type: cell-based; details: larger panel
Protocol: as §2, §3

E. faecalis = experiment: as above; assay type: cell-based; details: larger panel
Protocol: as §2, §3

K. pneumoniae = experiment: as above; assay type: cell-based; details: larger panel
Protocol: as §2, §3

P. aeruginosa ESBL 1 = experiment: as above; assay type: cell-based; details: larger panel
Protocol: as §2, §3

P. aeruginosa ESBL 2 = experiment: as above; assay type: cell-based; details: larger panel
Protocol: as §2, §3

P. mirabilis = experiment: as above; assay type: cell-based; details: larger panel
Protocol: as §2, §3

P. vulgaris = experiment: as above; assay type: cell-based; details: larger panel
Protocol: as §2, §3

S. epidermidis = experiment: as above; assay type: cell-based; details: larger panel
Protocol: as §2, §3

S. marcescens = experiment: as above; assay type: cell-based; details: larger panel
Protocol: as §2, §3

CO[C@@H](C(N)=O)[C@H](NC(=O)c1ccc(NC(=O)c2ccc([N+](=O)[O-])cc2)cc1)C(=O)Nc1ccc(C(=O)Nc2ccc(C(=O)Nc3ccc(C(=O)O)cc3)c(O)c2OC(C)C)cc1 [Cys861-2, reference compound]
>64 µg/mL: MIC E. aerogenes DSM-30053 (E. aerogenes DSM-30053) | MIC K. pneumoniae DSM-30104 (K. pneumoniae DSM-30104) | MIC P. mirabilis DSM-2140 (P. mirabilis DSM-2140) | MIC E. aerogenes (E. aerogenes) | MIC E. cloacae (E. cloacae) | MIC K. pneumoniae (K. pneumoniae) | MIC S. marcescens (S. marcescens)
4 µg/mL: MIC P. aeruginosa ESBL 1 (P. aeruginosa ESBL 1)
2 µg/mL: MIC P. aeruginosa DSM-46316 (P. aeruginosa DSM-46316) | MIC P. aeruginosa WT PA14 (P. aeruginosa WT PA14) | MIC P. aeruginosa ESBL 2 (P. aeruginosa ESBL 2)
64 µg/mL: MIC E. cloacae DSM-30054 (E. cloacae DSM-30054) | MIC S. marcescens DSM-30121 (S. marcescens DSM-30121)
0.25 µg/mL: MIC P. vulgaris DSM-2140 (P. vulgaris DSM-2140) | MIC S. aureus ATCC-29213 (S. aureus ATCC-29213) | MIC P. vulgaris (P. vulgaris)
1 µg/mL: MIC E. faecalis ATCC-29212 (E. faecalis ATCC-29212) | MIC P. aeruginosa DSM-24600 (P. aeruginosa DSM-24600) | MIC A. baumannii (A. baumannii) | MIC E. faecalis (E. faecalis)
0.13 µg/mL: MIC E. coli WT (E. coli WT; large panel, Table 2a)
0.5 µg/mL: MIC E. coli WT-3 [gyrA(S83L, D87G)] ([1]; fluoroquinolone-resistant mutant, Table 2a) | MIC E. coli WT-3 [gyrA(S83L, D87G)] ([1]; larger panel, Table 2b) | MIC P. aeruginosa ΔmexAB (P. aeruginosa ΔmexAB) | MIC A. baumannii DSM-30008 (A. baumannii DSM-30008) | MIC S. aureus Newman (S. aureus Newman) | MIC S. epidermidis DSM-28765 (S. epidermidis DSM-28765) | MIC E. coli WT-III [marRΔ74bp] [2] | MIC S. epidermidis (S. epidermidis)
0.125 µg/mL: MIC E. coli ΔtolC (E. coli ΔtolC) | MIC E. coli WT DSM-1116 (E. coli WT DSM-1116) | MIC C. freundii (C. freundii)
0.06 µg/mL: MIC C. freundii DSM-30039 (C. freundii DSM-30039) | MIC E. coli WT (E. coli WT; larger panel, Table 2b) | MIC S. pneumoniae DSM-20566 (S. pneumoniae DSM-20566)
32 µg/mL: MIC P. mirabilis (P. mirabilis)
220 nM: IC50 (E. coli gyrase)
